What was measured:
Assay in all cases: Test F preemergence
arrowleaf sida = assay type: in vivo, Sida rhombifolia
Text: (§1) Seeds of plant species selected from corn (Zea mays), soybean (Glycine max), velvetleaf (Abutilon theophrasti), lambsquarters (Chenopodium album), wild poinsettia (Euphorbia heterophylla), pigweed, palmer (palmer pigweed, Amaranthus palmeri), common waterhemp (Amaranthus rudis), surinam grass (Brachiaria decumbens), large crabgrass (Digitaria sanguinalis), crabgrass, Brazil (Brazilian crabgrass, Digitaria horizontalis), fall panicum (Panicum dichotomiflorum), giant foxtail (Setaria faberii), green foxtail (Setaria viridis), goosegrass (Eleusine indica), johnsongrass (Sorghum halepense), common ragweed (Ambrosia elation), barnyardgrass (Echinochloa crus-galli), southern sandbur (Cenchrus echinatus), arrowleaf sida (Sida rhombifolia), Italian ryegrass (Lolium multiflorum), dayflower, VA (Virginia (VA) dayflower, Commelina virginica), field bindweed (Convolvulus arvensis), cocklebur (common cocklebur, Xanthium strumarium), morningglory (Ipomoea coccinea), nightshade (eastern black nightshade, Solanum ptycanthum), kochia (Kochia scoparia), yellow nutsedge (Cyperus esculentus), and hairy beggarticks (Bidens pilosa), were planted into a silt loam soil and treated preemergence with test chemicals formulated in a non-phytotoxic solvent mixture which included a surfactant.
(§2) At the same time, plants from these crop and weed species and also horseweed (Canada horseweed, Conyza canadensis), smartweed (ladysthumb smartweed, Polygonum persicaria), waterhemp_RES1, (ALS & Triazine resistant common waterhemp, Amaranthus rudis), and waterhemp_RES2, (ALS & HPPD resistant common waterhemp, Amaranthus rudis) were treated with postemergence applications of test chemicals formulated in the same manner. Plants ranged in height from 2 to 18 cm for postemergence treatments (1- to 4-leaf stage). Treated plants and controls were maintained in a greenhouse for 14 to 21 days, after which time all species were compared to controls and visually evaluated. Plant response ratings, summarized in Table F, are based on a scale of 0 to 100 where 0 is no effect and 100 is complete control. A dash (-) response means no test result.

yellow nutsedge = assay type: in vivo, Cyperus esculentus
Summary of the method: (§3)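 Visual injury was scored from 0 (none) to 100 (complete control) relative to untreated controls after 14–21 days in a greenhouse. Before that, formulated compound (solvent plus surfactant) was sprayed either on silt-loam soil right after sowing or on emerged plants at the 1–4-leaf stage, 2–18 cm tall.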

field bindweed = assay type: in vivo, Convolvulus arvensis
Text: as §1, §2

Surinam grass = assay type: in vivo, Brachiaria decumbens
Summary of the method: as §3

[1] = Preemergence, 31 g ai/ha, scale 0 to 100
[2] = Preemergence, 62 g ai/ha, scale 0 to 100
[3] = Preemergence, 125 g ai/ha, scale 0 to 100
[4] = preemergence, 8 g ai/ha, scale 0 to 100, 100 is complete control
[5] = preemergence, 16 g ai/ha, scale 0 to 100, 100 is complete control
[6] = Preemergence, 250 g ai/ha, scale 0 to 100

CCc1cc(-c2ccc(C(F)(F)F)cc2)nn1Cc1ccnc(C(F)(F)F)c1 [Compound 110]
Plant response rating, Arrowleaf Sida (arrowleaf sida; [1]): 65 | Plant response rating, Arrowleaf Sida (arrowleaf sida; [2]): 80 | Plant response rating, Arrowleaf Sida (arrowleaf sida; [3]): 90 | Plant response rating, Arrowleaf Sida (arrowleaf sida; [4]): 35 | Plant response rating, Arrowleaf Sida (arrowleaf sida; [5]): 65 | Plant response rating, Yellow Nutsedge (yellow nutsedge; [1]): 0 | Plant response rating, Yellow Nutsedge (yellow nutsedge; [2]): 0 | Plant response rating, Yellow Nutsedge (yellow nutsedge; [3]): 0 | Plant response rating, Yellow Nutsedge (yellow nutsedge; [4]): 0 | Plant response rating, Yellow Nutsedge (yellow nutsedge; [5]): 0 | Plant response rating, Field Bindweed (field bindweed; [1]): 30 | Plant response rating, Field Bindweed (field bindweed; [2]): 50 | Plant response rating, Field Bindweed (field bindweed; [3]): 90 | Plant response rating, Field Bindweed (field bindweed; [4]): 0 | Plant response rating, Field Bindweed (field bindweed; [5]): 10 | Plant response rating, Surinam Grass (Surinam grass; [1]): 5 | Plant response rating, Surinam Grass (Surinam grass; [2]): 5 | Plant response rating, Surinam Grass (Surinam grass; [3]): 10 | Plant response rating, Surinam Grass (Surinam grass; [4]): 0 | Plant response rating, Surinam Grass (Surinam grass; [5]): 0

CCc1cc(C(=O)NCC(F)(F)F)nn1Cc1ccnc(Br)c1 [Compound 224]
Plant response rating, Arrowleaf Sida (arrowleaf sida; [2]): 35 | Plant response rating, Arrowleaf Sida (arrowleaf sida; [3]): 30 | Plant response rating, Arrowleaf Sida (arrowleaf sida; [6]): 35 | Plant response rating, Yellow Nutsedge (yellow nutsedge; [2]): 0 | Plant response rating, Yellow Nutsedge (yellow nutsedge; [3]): 35 | Plant response rating, Yellow Nutsedge (yellow nutsedge; [6]): 35 | Plant response rating, Field Bindweed (field bindweed; [2]): 65 | Plant response rating, Field Bindweed (field bindweed; [3]): 90 | Plant response rating, Field Bindweed (field bindweed; [6]): 90 | Plant response rating, Surinam Grass (Surinam grass; [2]): 70 | Plant response rating, Surinam Grass (Surinam grass; [3]): 50 | Plant response rating, Surinam Grass (Surinam grass; [6]): 65
